Experiments:
Type in all cases: cell-based
U937 cell line = experiment: MTT assay, toxicity (cell viability), U937
Method: (§1) The MTT assay measures cell proliferation as well as reduction in cell viability when metabolic events lead to apoptosis or necrosis. It can also be used to assess the rate of survival of a given cell line when it is incubated in the presence of xenobiotics. The reduction of tetrazolium salts is accepted as a reliable way to analyse cell proliferation. The yellow tetrazolium MTT (3-(4,5-dimethylthiazolyl-2)-2,5-diphenyltetrazolium bromide) is reduced by metabolically active cells and results in the intracellular formation of purple formazan that can be spectrophotometrically measured after solubilisation with DMSO.
(§2) The MTT assay was used in this invention to assess the toxicity of compounds at different concentrations. To analyse their potential impairment in cell viability, compounds were added to Saos-2 and U937 cell lines at different concentrations and incubated at different times. Results are expressed by percentage cell viability.

Caspase activity, U2-OS = experiment: Caspase inhibition assay, U2-OS; settings: Homo sapiens, U2OS
Saos-2 cell line = experiment: MTT assay, toxicity (cell viability), Saos-2
Method: as §1, §2

[1] = test system: Caspase activity, U937 cell extracts; experiment: Caspase inhibition assay, U937 cell extracts; settings: Homo sapiens, U-937
Method: (§3) The time-dependent inhibition of caspase induced by the compounds described in this invention was analysed. […] Caspase activity was assayed using Saos-2 or U937 cell extracts and Ac-DEVD-afc (N-acetyl-Asp-Glu-Val-Asp-afc(7-amino-4-trifluoromethyl coumarin)) as substrate (20 μM). Caspase activity was continuously monitored by the liberation of fluorescent afc using a Cytofluor 4000 fluorimeter (excitation 400 nm; emission 508 nm) for 1 hour. The effect of the compounds on the caspase activity was expressed as the percentage of inhibition in the fluorescence signal of treated cells vs. the non-treated cells (control).

Caspase activity, HeLa = experiment: Caspase inhibition assay, HeLa; settings: Homo sapiens
[2] = test system: Caspase activity, Saos-2 cell extracts; experiment: Caspase inhibition assay, Saos-2 cell extracts; settings: Homo sapiens, 1 μM
Method: as §3

SMILES | % Cell viability (U937 cell line; U937, 24 h, 1 μM) | % Cell viability (U937 cell line; U937, 24 h, 5 μM) | % Cell viability (U937 cell line; U937, 24 h, 10 μM) | % Cell viability (U937 cell line; U937, 48 h, 1 μM) | % Cell viability (U937 cell line; U937, 48 h, 5 μM) | % Cell viability (U937 cell line; U937, 48 h, 10 μM) | inhibition at 5 µM (Caspase activity, U2-OS; 24 h) | inhibition at 5 µM (Caspase activity, U2-OS; 48 h) | inhibition at 5 µM (Caspase activity, U2-OS; 72 h) | % Cell viability (Saos-2 cell line; Saos-2, 24 h, 1 μM) | % Cell viability (Saos-2 cell line; Saos-2, 24 h, 5 μM) | % Cell viability (Saos-2 cell line; Saos-2, 24 h, 10 μM) | % Cell viability (Saos-2 cell line; Saos-2, 48 h, 1 μM) | % Cell viability (Saos-2 cell line; Saos-2, 48 h, 5 μM) | % Cell viability (Saos-2 cell line; Saos-2, 48 h, 10 μM) | inhibition at 5 µM ([1]; U937, 24 h) | inhibition at 5 µM ([1]; U937, 48 h) | inhibition at 5 µM ([1]; U937, 72 h) | inhibition at 5 µM (Caspase activity, HeLa; 24 h) | inhibition at 5 µM (Caspase activity, HeLa; 48 h) | also measured
NC(=O)CN(CCc1ccc(F)cc1)C(=O)C1CC(=O)N(CCc2ccc(Cl)cc2Cl)CC(=O)N1CCC(c1ccccc1)c1ccccc1 (stereo not shown) [I.10, 1-[2-(2,4-Dichlorophenyl)ethyl]-4-(3,3-diphenylpropyl)-3,7-dioxo[1,4]diazepane-5-carboxylic acid carbamoylmethyl[2-(4-fluorophenyl)ethyl]amide] | 96% | 99% | 89% | 100% | 98% | 99% | 0% | 22% | 64% | 76% | 100% | 91% | 100% | 100% | 100% | 0% | 5% | 2% | 1% | 6% | –
NC(=O)CN(CCc1ccc(Cl)cc1)C(=O)C1CC(=O)N(CCc2ccc(Cl)cc2Cl)CC(=O)N1CCC(c1ccccc1)c1ccccc1 (stereo not shown) [I.8, 1-[2-(2,4-Dichlorophenyl)ethyl]-4-(3,3-diphenylpropyl)-3,7-dioxo[1,4]diazepane-5-carboxylic acid carbamoylmethyl[2-(4-chlorophenyl)ethyl]amide] | 100% | 98% | 99% | 100% | 98% | 99% | 0% | 16% | 24% | 100% | 100% | 99% | 97% | 100% | 100% | 5% | 15% | 23% | 5% | 3% | inhibition at 5 µM (Caspase activity, HeLa; 72 h): 6%
NC(=O)CN(CC1CCCO1)C(=O)C1CC(=O)N(CCc2ccc(Cl)cc2Cl)CC(=O)N1CCC(c1ccccc1)c1ccccc1 (stereo not shown) [I.4, 1-[2-(2,4-Dichlorophenyl)ethyl]-4-(3,3-diphenylpropyl)-3,7-dioxo[1,4]diazepane-5-carboxylic acid carbamoylmethyl(tetrahydrofuran-2-ylmethyl)amide] | 100% | 99% | 87% | 99% | 94% | 95% | – | – | – | 100% | 97% | 100% | 100% | 98% | 99% | – | – | – | – | – | inhibition at 1 µM ([2]; Saos-2, 24 h): 55%; inhibition at 1 µM ([2]; Saos-2, 48 h): 9%; inhibition at 1 µM (Caspase activity, U2-OS; 24 h): 0%; inhibition at 1 µM (Caspase activity, U2-OS; 48 h): 23%; inhibition at 1 µM (Caspase activity, U2-OS; 72 h): 54%; inhibition at 1 µM ([1]; U937, 24 h): 0%; inhibition at 1 µM ([1]; U937, 48 h): 12%; inhibition at 1 µM ([1]; U937, 72 h): 0%; inhibition at 1 µM (Caspase activity, HeLa; 24 h): 48%; inhibition at 1 µM (Caspase activity, HeLa; 48 h): 14%; inhibition at 1 µM (Caspase activity, HeLa; 72 h): 35%
NC(=O)CN(CCc1ccccc1F)C(=O)C1CC(=O)N(CCc2ccc(Cl)cc2Cl)CC(=O)N1CCC(c1ccccc1)c1ccccc1 (stereo not shown) [I.9, 1-[2-(2,4-Dichlorophenyl)ethyl]-4-(3,3-diphenylpropyl)-3,7-dioxo[1,4]diazepane-5-carboxylic acid carbamoylmethyl[2-(2-fluorophenyl)-ethyl]amide] | 100% | 98% | 88% | 93% | 69% | 59% | 0% | 34% | 61% | 100% | 96% | 82% | 97% | 76% | 66% | 3% | 4% | 63% | 0% | 0% | inhibition at 5 µM (Caspase activity, HeLa; 72 h): 41%
CC(=O)NCCNC(=O)CNC(=O)C1CC(=O)N(CCc2ccc(Cl)cc2Cl)CC(=O)N1CCC(c1ccccc1)c1ccccc1 (stereo not shown) [I.3, 1-[2-(2,4-Dichlorophenyl)ethyl]-4-(3,3-diphenylpropyl)-3,7-dioxo[1,4]diazepane-5-carboxylic acid (2-acetylaminoethyl)carbamoylmethylamide] | 100% | 95% | 95% | 100% | 100% | 98% | 1% | 29% | 22% | 97% | 93% | 100% | 100% | 100% | 100% | 12% | 16% | 1% | 9% | 21% | inhibition at 5 µM (Caspase activity, HeLa; 72 h): 29%
CCCCN(CC(N)=O)C(=O)C1CC(=O)N(CCc2ccc(Cl)cc2Cl)CC(=O)N1CCC(c1ccccc1)c1ccccc1 (stereo not shown) [I.11, 1-[2-(2,4-Dichloro-phenyl)ethyl]-4-(3,3-diphenylpropyl)-3,7-dioxo[1,4]diazepane-5-carboxylic acid butyl-carbamoylmethylamide] | 100% | 95% | 79% | 98% | 89% | 75% | 0% | 31% | 50% | 100% | 98% | 82% | 100% | 91% | 74% | 11% | 0% | 4% | 14% | 0% | inhibition at 5 µM (Caspase activity, HeLa; 72 h): 62%
NCCCCC(NC(=O)CN(CCc1ccc(Cl)cc1Cl)C(=O)C1CC(=O)N(CCc2ccc(Cl)cc2Cl)CC(=O)N1CCC(c1ccccc1)c1ccccc1)C(N)=O (stereo not shown) [IIa.2, 1-[2-(2,4-Dichlorophenyl)ethyl]-4-(3,3-diphenyl-propyl)-3,7-dioxo[1,4]diazepane-5-carboxylic acid [(5-amino-1-carbamoylpentylcarbamoyl)methyl]-[2-(2,4-dichlorophenyl)ethyl]amide] | – | – | – | – | – | – | – | – | – | 98% | 100% | 77% | 100% | 97% | 98% | 23% | 11% | 5% | – | – | % Cell viability (Saos-2 cell line; Saos-2, 24 h, 25 μM): 25%; % Cell viability (Saos-2 cell line; Saos-2, 24 h, 50 μM): 10%; % Cell viability (Saos-2 cell line; Saos-2, 48 h, 25 μM): 11%
NC(=O)CN(C(=O)C1CC(=O)N(CCc2ccc(Cl)cc2Cl)CC(=O)N1CCC(c1ccccc1)c1ccccc1)C1CC1 (stereo not shown) [I.2, 1-[2-(2,4-Dichlorophenyl)ethyl]-4-(3,3-diphenylpropyl)-3,7-dioxo[1,4]diazepane-5-carboxylic acid carbamoylmethylcyclopropylamide] | 100% | 100% | 97% | 100% | 99% | 83% | 0% | 54% | 27% | 100% | 99% | 99% | 100% | 100% | 91% | 0% | 3% | 0% | 1% | 46% | inhibition at 5 µM (Caspase activity, HeLa; 72 h): 59%
